Measurements as given in patent US5484940A, “Substituted 3-indolyl-5-pyrazolone compounds” (priority 1994, dated 1996).

Tests used:
293 751 SWE cells = test: Cytotoxicity (MTT) in 293 751 SWE cells; type: cell-based, human; details: concentration not given
Summary of the method: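 Used HEK293 cells stably expressing APP751 carrying the Swedish double mutation (K651N/M652L), plated at 1.5-2.5×10^4 cells/well in DMEM + 10% FBS. MTT was added to a final 1 mg/mL for 1 h at 37 °C, then lysed in SDS/DMF (pH 4.7) overnight. Viability was read as OD562 − OD650.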

[1] = test system: β-amyloid peptide production; test: Cellular screen for inhibitors of β-amyloid production (ELISA, 293 751 SWE cells); type: cell-based, human; details: 2 h pretreatment + 2 h, normalized for cytotoxicity (MTT), concentration not given
Summary of the method: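 293 751 SWE cells (K293 stably expressing APP751 Swedish mutant) pretreated 2 h with compound, then fresh compound-containing medium for 2 h more at 37 °C. Secreted β-amyloid in conditioned medium quantified by sandwich ELISA (capture 266 anti-Aβ13-28, labelled 6C6 anti-Aβ1-16) against a standard curve as ng/mL; mean ± SD of ≥6 replicates.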

COc1ccc2c(c1)c(CC1=NN(c3cccc(C(F)(F)F)c3)C(=O)C1)c(C)n2C(=O)c1ccc(Cl)cc1 [Example 25, 3-[1-(4-chlorobenzoyl)-5-methoxy-2-methyl-3-indolylmethyl]-1-(3-trifluoromethylphenyl)-5-pyrazolone]
cytotoxic effect on the 293 751 SWE cells (293 751 SWE cells): did not have a significant cytotoxic effect | reduction of β-amyloid peptide production as compared to control [1]: at least 20%
